Measurements taken from publication PMC2760403 (The Journal of organic chemistry, 2009).

Key:
Type in all cases: biochemical
[1] = biological target: M. tuberculosis Lumazine Synthase (Mycobacterium tuberculosis, UniProt P9WHE9); settings: recombinant M. tuberculosis LS; for kcat (rate constant ES → E + P): fit of the compound's data set; for kcat (rate constant ES → E + P) / Kis (inhibitor dissociation constant, ES + I ⇌ ESI): pH 7.0; for Kis (inhibitor dissociation constant, ES + I ⇌ ESI): substrate 1 varied, 2 constant
Chain of M. tuberculosis Lumazine Synthase (P9WHE9 whole entry): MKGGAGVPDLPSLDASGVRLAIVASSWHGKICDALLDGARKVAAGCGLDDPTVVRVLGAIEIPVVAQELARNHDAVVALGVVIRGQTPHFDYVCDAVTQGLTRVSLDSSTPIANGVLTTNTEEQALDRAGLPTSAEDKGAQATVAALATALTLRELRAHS

[2] = biological target: T1, S. pombe Lumazine Synthase (Schizosaccharomyces pombe, UniProt Q9UUB1); experiment: Lumazine synthase kinetic inhibition assay; settings: recombinant S. pombe LS; for kcat (rate constant ES → E + P): fit of the compound's data set; for kcat (rate constant ES → E + P) / Kis (inhibitor dissociation constant, ES + I ⇌ ESI): pH 7.0; for Kis (inhibitor dissociation constant, ES + I ⇌ ESI): substrate 1 varied, 2 constant
T1 sequence (Q9UUB1 1-159): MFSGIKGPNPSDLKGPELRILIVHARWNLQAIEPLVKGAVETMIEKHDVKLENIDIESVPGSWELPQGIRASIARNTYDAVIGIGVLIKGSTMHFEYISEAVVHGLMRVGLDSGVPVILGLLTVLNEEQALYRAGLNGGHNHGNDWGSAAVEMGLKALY

[3] = biological target: E. coli Riboflavin Synthase (Escherichia coli, UniProt P0AFU8); experiment: Riboflavin synthase kinetic inhibition assay; settings: recombinant E. coli RS
Chain of E. coli Riboflavin Synthase (P0AFU8 whole entry): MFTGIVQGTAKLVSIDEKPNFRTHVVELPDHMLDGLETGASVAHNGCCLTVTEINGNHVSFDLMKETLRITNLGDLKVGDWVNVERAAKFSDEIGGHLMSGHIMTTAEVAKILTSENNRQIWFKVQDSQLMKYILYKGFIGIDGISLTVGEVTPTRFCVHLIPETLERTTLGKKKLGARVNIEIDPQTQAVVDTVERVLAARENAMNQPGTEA

Compound	Mode of inhibition [1]	kcat (rate constant ES → E + P) [1] [s⁻¹]	Kis (inhibitor dissociation constant, ES + I ⇌ ESI) [1] [µM]	Mode of inhibition [2]	kcat (rate constant ES → E + P) [2] [s⁻¹]	Kis (inhibitor dissociation constant, ES + I ⇌ ESI) [2] [µM]	Mode of inhibition [3]	kcat (rate constant ES → E + P) ([3]; fit of the compound's data set, pH 7.0) [s⁻¹]	Kis (inhibitor dissociation constant, ES + I ⇌ ESI) ([3]; pH 7.0) [µM]
O=c1[nH]c(NCc2ccccc2O)c([N+](=O)[O-])c(=O)[nH]1 [Compound 46, 6-(2-Hydroxybenzylamino)-5-nitropyrimidine-2,4(1H,3H)-dione]	Uncompetitive	0.0103 ± 0.00033	904 ± 193	–	–	–	–	–	–
O=c1[nH]c(/C=C/c2cccc([N+](=O)[O-])c2)c([N+](=O)[O-])c(=O)[nH]1 [Compound 25, (E)-5-Nitro-6-(3-nitrostyryl)pyrimidine-2,4(1H,3H)-dione]	Mixed	0.0055 ± 0.00017	173 ± 50	Mixed	0.019 ± 0.00033	496 ± 219	–	–	–
O=C1OC(Cc2[nH]c(=O)[nH]c(=O)c2[N+](=O)[O-])c2ccccc21 (stereo not drawn) [Compound 49, 5-Nitro-6-[(3-oxo-1,3-dihydroisobenzofuran-1-yl)methyl]pyrimidine-2,4-(1H,3H)-dione]	–	–	–	Uncompetitive	0.0187 ± 0.00033	154 ± 13	–	–	–
O=c1[nH]c(/C=C/c2ccccc2F)c([N+](=O)[O-])c(=O)[nH]1 [Compound 28, (E)-6-(2-Fluorostyryl)-5-nitropyrimidine-2,4(1H,3H)-dione]	Mixed	0.0045 ± 0.00017	13 ± 3	–	–	–	–	–	–
COc1cc(/C=C/c2[nH]c(=O)[nH]c(=O)c2[N+](=O)[O-])cc(OC)c1OC [Compound 24, (E)-6-(3,4,5-Trimethoxystyryl)-5-nitropyrimidine-2,4(1H,3H)-dione]	Mixed	0.0045 ± 0.00017	37 ± 5	Uncompetitive	0.0233 ± 0.0005	47 ± 4	–	–	–
COc1ccc(/C=C/c2[nH]c(=O)[nH]c(=O)c2[N+](=O)[O-])c(OC)c1OC [Compound 23, (E)-6-(2,3,4-Trimethoxystyryl)-5-nitropyrimidine-2,4(1H,3H)-dione]	Mixed	0.00567 ± 0.00017	97 ± 24	–	–	–	–	–	–
COc1ccc(/C=C/c2[nH]c(=O)[nH]c(=O)c2[N+](=O)[O-])cc1O [Compound 20, (E)-6-(3-Hydroxy-4-methoxystyryl)-5-nitropyrimidine-2,4(1H,3H)-dione]	Mixed	0.00467 ± 0.00017	74 ± 12	Uncompetitive	0.0235 ± 0.00033	38 ± 2	–	–	–
COc1cccc(/C=C/c2[nH]c(=O)[nH]c(=O)c2[N+](=O)[O-])c1OC [Compound 21, (E)-6-(2,3-Dimethoxystyryl)-5-nitropyrimidine-2,4(1H,3H)-dione]	Mixed	0.0055 ± 0.00017	22 ± 6	Competitive	0.0368 ± 0.00033	–	–	–	–
5-Amino-(2-hydroxy-2-phenethyl)pyrimidine-2,4-(1H,3H)-dione [Compound 50]	–	–	–	–	–	–	Uncompetitive	0.07 ± 0.0017	788 ± 148
O=C(O)c1ccc(/C=C/c2[nH]c(=O)[nH]c(=O)c2[N+](=O)[O-])cc1 [Compound 27, (E)-4-(2-(5-Nitro-2,6-dioxo-1,2,3,6-tetrahydropyrimidine-4-yl)vinyl)benzoic Acid]	Partial	0.00588 ± 6.7e-05	78 ± 38	Mixed	0.0232 ± 0.0005	187 ± 43	–	–	–
O=c1[nH]c(/C=C/c2ccc(Cl)cc2)c([N+](=O)[O-])c(=O)[nH]1 [Compound 31, (E)-6-(4-Chlorostyryl)-5-nitropyrimidine-2,4(1H,3H)-dione]	Mixed	0.00617 ± 0.00017	188 ± 38	–	–	–	–	–	–
O=c1[nH]c(/C=C/c2ccc([N+](=O)[O-])cc2)c([N+](=O)[O-])c(=O)[nH]1 [Compound 26, (E)-5-Nitro-6-(4-nitrostyryl)pyrimidine-2,4(1H,3H)-dione]	Mixed	0.0075 ± 0.00017	37 ± 17	Partial	0.0217 ± 0.00033	15 ± 5	–	–	–
COc1ccccc1/C=C/c1[nH]c(=O)[nH]c(=O)c1[N+](=O)[O-] [Compound 19, (E)-6-(2-Methoxystyryl)-5-nitropyrimidine-2,4(1H,3H)-dione]	Partial	0.00537 ± 6.7e-05	44 ± 10	Mixed	0.0285 ± 0.00017	733 ± 227	–	–	–
O=c1[nH]c(/C=C/c2ccc(O)c([N+](=O)[O-])c2)c([N+](=O)[O-])c(=O)[nH]1 [Compound 36, (E)-6-(4-Hydroxy-3-nitrostyryl)-5-nitropyrimidine-2,4(1H,3H)-dione]	Mixed	0.00617 ± 0.00017	461 ± 150	Uncompetitive	0.022 ± 0.00017	276 ± 16	–	–	–
COc1ccc(/C=C/c2[nH]c(=O)[nH]c(=O)c2[N+](=O)[O-])cc1OC [Compound 22, (E)-6-(3,4-Dimethoxystyryl)-5-nitropyrimidine-2,4(1H,3H)-dione]	Mixed	0.0055 ± 0.00017	32 ± 3	–	–	–	–	–	–
O=c1[nH]c(NCc2ccccc2)c([N+](=O)[O-])c(=O)[nH]1 [Compound 45, 6-(Benzylamino)-5-nitropyrimidine-2,4(1H,3H)-dione]	Uncompetitive	0.00933 ± 0.00017	823 ± 128	–	–	–	–	–	–
O=c1[nH]c(/C=C/c2ccc(Br)cc2)c([N+](=O)[O-])c(=O)[nH]1 [Compound 30, (E)-5-Nitro-6-(4-bromostyryl)pyrimidine-2,4(1H,3H)-dione]	Mixed	0.00567 ± 0.00017	234 ± 59	Uncompetitive	0.0205 ± 0.00017	604 ± 54	–	–	–
O=c1[nH]c(/C=C/c2ccccc2[N+](=O)[O-])c([N+](=O)[O-])c(=O)[nH]1 [Compound 14, (E)-6-(2-Nitrostyryl)-5-nitropyrimidine-2,4(1H,3H)-dione]	Partial	0.00517 ± 0.00017	49 ± 12	–	–	–	–	–	–
O=C(O)c1ccc(/C=C/c2[nH]c(=O)[nH]c(=O)c2[N+](=O)[O-])c(O)c1 [Compound 37, (E)-3-Hydroxy-4-(2-(5-nitro-2,6-dioxo-1,2,3,6-tetrahydropyrimidine-4-yl)vinyl)benzoic Acid]	Mixed	0.00667 ± 0.00017	468 ± 113	Mixed	0.0273 ± 0.00033	921 ± 640	–	–	–
COc1ccc([N+](=O)[O-])cc1/C=C/c1[nH]c(=O)[nH]c(=O)c1[N+](=O)[O-] [Compound 34, (E)-6-(2-Methoxy-5-nitrostyryl)-5-nitropyrimidine-2,4(1H,3H)-dione]	Mixed	0.00633 ± 0.00017	225 ± 59	Mixed	0.0182 ± 0.00033	682 ± 409	–	–	–
O=c1[nH]c(/C=C/c2cccnc2)c([N+](=O)[O-])c(=O)[nH]1 [Compound 42, (E)-5-Nitro-6-(3-(pyridine-3-yl)vinyl)pyrimidine-2,4(1H,3H)-dione]	Partial	0.007 ± 0.00017	24 ± 10	–	–	–	–	–	–
O=c1[nH]c(C=Cc2ccccc2)c([N+](=O)[O-])c(=O)[nH]1 [Compound 39, 5-Nitro-6-styryluracil]	Partial	–	15 ± 4	Competitive	0.0367 ± 0.0017	–	–	–	–
COc1cccc(/C=C/c2[nH]c(=O)[nH]c(=O)c2[N+](=O)[O-])c1F [Compound 38, (E)-6-(2-Fluoro-3-methoxystyryl)-5-nitropyrimidine-2,4(1H,3H)-dione]	Mixed	0.00583 ± 0.00017	89 ± 11	Mixed	0.0165 ± 0.00017	390 ± 90	–	–	–
